Assay results: US12679878B2, “CRF2 receptor agonists and their use in therapy” (SANOFI, priority 2020, dated 2026)
Starred links: 1 amine or outer side, 2 acyl side, 3 side chain; linkers in the order of their positions; H or OH if unused. Non-standard residues stand in square brackets, D forms with d. Residues, ends and D or L forms follow the SMILES beside them. Groups on a side chain read outwards from the residue. *: point of attachment. C18 diacid = O=C(O)CCCCCCCCCCCCCCCCC(=O)*; γGlu = O=C(O)[C@H](CCC(=O)[*:2])N[*:1]; AEEA = NCCOCCOCC(=O)O; Aib = CC(C)(N)C(=O)O

Experiment: Effect on blood pressure, telemetry (Example 17)
Assay type: in vivo
Conditions: Sprague Dawley rats, 0.1 mg/kg SC
Description: The effect of the compounds on blood pressure was determined in telemetry studies in Sprague Dawley rats at a dosage of 0.1 mg/kg SC.
The rats were previously implanted with a telemetry device (DSI, Saint-Paul, USA, HD-S10, HD-S11 or HD S21) and allowed to recover for a minimum period of 2 weeks before treatment with vehicle or the different peptides. Blood pressure (BP) was recorded through a catheter inserted into the abdominal aorta. The device body was placed in the abdomen. At the end of surgery, animals were placed in individual cages until the end of the study.
Pressure signals were recorded for one hour before the treatment (basal period). Thereafter, the subcutaneous administration of the test compound or its vehicle was performed, under continuous recording of the signal over a 48-hour period. Data acquisition was performed using Hem 4.3 acquisition software (Notocord®, Le Pecq, France) connected to the telemetry device. Hemodynamic parameters were recorded during a […] before treatment and every 4-hour period following subcutaneous administration over 48 hours.
Investigated parameters (calculated from BP signal) were Heart Rate (HR) in beats per minute (bpm), Diastolic and Systolic Blood Pressure (DBP) in mmHg, and Mean Blood Pressure (MBP) in mmHg.
Data from Hem were manipulated using Microsoft Excel®. For each parameter, a basal value was determined as the average calculated over a 1-hour period during the pre-treatment sequence, and the values post treatment were calculated over 4-hour periods ([0-4], [4-8], [8-12], [12-16], [16-20], [20-24], [24-28], [32-36], [36-40], [40-44] and [44-48] hours) covering the 48-hour period following administration.
Representative data are presented in Table 15 below, in which “n” represents the number of animals for which individual values were obtained and “Duration” indicates the last time point for which a significant effect on BP was still seen: Table 15

## CC[C@H](C)[C@H](N)C(=O)N[C@H](C(=O)N[C@@H](CC(C)C)C(=O)N[C@@H](CO)C(=O)N[C@@H](CC(C)C)C(=O)N[C@@H](CC(=O)O)C(=O)N[C@@H](C(=O)N1CCC[C@H]1C(=O)N[C@H](C(=O)N[C@@H](CCCCN)C(=O)N[C@@H](CC(C)C)C(=O)N[C@@H](CCCCNC(=O)COCCOCCNC(=O)COCCOCCNC(=O)CC[C@H](NC(=O)CCCCCCCCCCCCCCCCC(=O)O)C(=O)O)C(=O)N[C@@H](CCC(N)=O)C(=O)N[C@H](C(=O)N[C@@H](CC(C)C)C(=O)N[C@@H](CC(C)C)C(=O)N[C@@H](CCCCN)C(=O)N[C@@H](CCC(N)=O)C(=O)N[C@@H](C)C(=O)N[C@@H](CCCNC(=N)N)C(=O)N[C@@H](CCC(N)=O)C(=O)N[C@@H](CCCCN)C(=O)NC(C)(C)C(=O)N[C@@H](CCC(N)=O)C(=O)N[C@@H](CCCNC(=N)N)C(=O)N[C@@H](C)C(=O)N[C@@H](CCC(N)=O)C(=O)N[C@@H](C)C(=O)N[C@@H](CCC(=O)O)C(=O)N[C@@H](CCCCN)C(=O)N[C@@H](CC(N)=O)C(=O)N[C@@H](CCCCN)C(=O)N[C@@H](CCCNC(=N)N)C(=O)N[C@H](C(=O)N[C@@H](CC(C)C)C(=O)N[C@@H](CCC(=O)O)C(=O)N[C@@H](CCCNC(=N)N)C(=O)N[C@H](C(N)=O)C(C)C)[C@@H](C)CC)[C@@H](C)CC)[C@@H](C)CC)C(C)C)C(C)C [SEQ ID NO: 141, IVLSLDvPIKLK*QILLKQARQKAibQRAQAEKNKRILERV-NH2] (H-IVLSLD[dV]PIKLK([AEEA-AEEA-γGlu-C18 diacid])QILLKQARQK[Aib]QRAQAEKNKRILERV-NH2)
  Duration (h): last time point for which a significant effect on BP was still seen: 24 h
  Effect on Systolic Pressure % change from baseline 8 h: −5.2%
  Effect on Systolic Pressure % change from baseline 24 h: −4.2%

## CC[C@H](C)[C@H](N)C(=O)N[C@H](C(=O)N[C@@H](CC(C)C)C(=O)N[C@@H](CO)C(=O)N[C@@H](CC(C)C)C(=O)N[C@@H](CC(=O)O)C(=O)N[C@@H](C(=O)N1CCC[C@H]1C(=O)N[C@H](C(=O)N[C@@H](CCCCN)C(=O)N[C@@H](CC(C)C)C(=O)N[C@@H](CCCCNC(=O)COCCOCCNC(=O)COCCOCCNC(=O)CC[C@H](NC(=O)CCCCCCCCCCCCCCCCC(=O)O)C(=O)O)C(=O)N[C@@H](CCC(N)=O)C(=O)N[C@H](C(=O)N[C@@H](CC(C)C)C(=O)N[C@@H](CC(C)C)C(=O)N[C@@H](CCC(=O)O)C(=O)N[C@@H](CCC(N)=O)C(=O)N[C@@H](C)C(=O)N[C@@H](CCCNC(=N)N)C(=O)N[C@@H](CCC(N)=O)C(=O)N[C@@H](CCCCN)C(=O)NC(C)(C)C(=O)N[C@@H](CCC(N)=O)C(=O)N[C@@H](CCCNC(=N)N)C(=O)N[C@@H](CCC(=O)O)C(=O)N[C@@H](CCC(N)=O)C(=O)N[C@@H](C)C(=O)N[C@@H](CCC(=O)O)C(=O)N[C@@H](CCCCN)C(=O)N[C@@H](CC(N)=O)C(=O)N[C@@H](CCCCN)C(=O)N[C@@H](CCCNC(=N)N)C(=O)N[C@H](C(=O)N[C@@H](CC(C)C)C(=O)N[C@@H](CCC(=O)O)C(=O)N[C@@H](CCCNC(=N)N)C(=O)N[C@H](C(N)=O)C(C)C)[C@@H](C)CC)[C@@H](C)CC)[C@@H](C)CC)C(C)C)C(C)C [SEQ ID NO: 142, IVLSLDvPIKLK*QILLEQARQKAibQREQAEKNKRILERV-NH2] (H-IVLSLD[dV]PIKLK([AEEA-AEEA-γGlu-C18 diacid])QILLEQARQK[Aib]QREQAEKNKRILERV-NH2)
  Duration (h): last time point for which a significant effect on BP was still seen: 30 h
  Effect on Systolic Pressure % change from baseline 8 h: −22.2%
  Effect on Systolic Pressure % change from baseline 24 h: −6.5%

## CC[C@H](C)[C@H](N)C(=O)N[C@H](C(=O)N[C@@H](CC(C)C)C(=O)N[C@@H](CO)C(=O)N[C@@H](CC(C)C)C(=O)N[C@@H](CC(=O)O)C(=O)N[C@@H](C(=O)N1CCC[C@H]1C(=O)N[C@H](C(=O)N[C@@H](CCCCN)C(=O)N[C@@H](CC(C)C)C(=O)N[C@@H](CCCCNC(=O)COCCOCCNC(=O)COCCOCCNC(=O)CC[C@H](NC(=O)CCCCCCCCCCCCCCCCC(=O)O)C(=O)O)C(=O)N[C@@H](CCC(N)=O)C(=O)N[C@H](C(=O)N[C@@H](CC(C)C)C(=O)N[C@@H](CC(C)C)C(=O)N[C@@H](CCCCN)C(=O)N[C@@H](CCC(N)=O)C(=O)N[C@@H](CCC(=O)O)C(=O)N[C@@H](CCCNC(=N)N)C(=O)N[C@@H](CCC(N)=O)C(=O)N[C@@H](CCCCN)C(=O)N[C@@H](CCCCN)C(=O)NC(C)(C)C(=O)N[C@@H](CCCNC(=N)N)C(=O)N[C@@H](CCC(=O)O)C(=O)N[C@@H](CCC(N)=O)C(=O)N[C@@H](C)C(=O)N[C@@H](CCC(=O)O)C(=O)N[C@H](C(=O)N[C@@H](CC(N)=O)C(=O)N[C@@H](CCCCN)C(=O)N[C@@H](CCCNC(=N)N)C(=O)N[C@H](C(=O)N[C@@H](CC(C)C)C(=O)N[C@@H](CCC(=O)O)C(=O)N[C@@H](CCCNC(=N)N)C(=O)N[C@H](C(N)=O)C(C)C)[C@@H](C)CC)[C@@H](C)O)[C@@H](C)CC)[C@@H](C)CC)C(C)C)C(C)C [SEQ ID NO: 149, IVLSLDvPIKLK*QILLKQERQKKAibREQAETNKRILERV-NH2] (H-IVLSLD[dV]PIKLK([AEEA-AEEA-γGlu-C18 diacid])QILLKQERQKK[Aib]REQAETNKRILERV-NH2)
  Duration (h): last time point for which a significant effect on BP was still seen: 30 h
  Effect on Systolic Pressure % change from baseline 8 h: −11.5%
  Effect on Systolic Pressure % change from baseline 24 h: −2.5%

## CC[C@H](C)[C@H](N)C(=O)N[C@H](C(=O)N[C@@H](CC(C)C)C(=O)N[C@@H](CO)C(=O)N[C@@H](CC(C)C)C(=O)N[C@@H](CC(=O)O)C(=O)N[C@@H](C(=O)N1CCC[C@H]1C(=O)N[C@H](C(=O)NCC(=O)N[C@@H](CC(C)C)C(=O)N[C@@H](CCCCNC(=O)COCCOCCNC(=O)COCCOCCNC(=O)CC[C@H](NC(=O)CCCCCCCCCCCCCCCCC(=O)O)C(=O)O)C(=O)N[C@@H](CCC(N)=O)C(=O)N[C@H](C(=O)N[C@@H](CC(C)C)C(=O)N[C@@H](CC(C)C)C(=O)N[C@@H](CCCCN)C(=O)N[C@@H](CCC(N)=O)C(=O)N[C@@H](CCC(=O)O)C(=O)N[C@@H](CCCNC(=N)N)C(=O)N[C@@H](CCC(N)=O)C(=O)N[C@@H](CCCCN)C(=O)N[C@@H](CCCCN)C(=O)NC(C)(C)C(=O)N[C@@H](CCCNC(=N)N)C(=O)N[C@@H](CCC(=O)O)C(=O)N[C@@H](CCC(N)=O)C(=O)N[C@@H](C)C(=O)N[C@@H](CCC(=O)O)C(=O)N[C@@H](CCCCN)C(=O)N[C@@H](CC(N)=O)C(=O)N[C@@H](CCCCN)C(=O)N[C@@H](CCCNC(=N)N)C(=O)N[C@H](C(=O)N[C@@H](CC(C)C)C(=O)N[C@@H](CCC(=O)O)C(=O)N[C@@H](CCCNC(=N)N)C(=O)N[C@H](C(N)=O)C(C)C)[C@@H](C)CC)[C@@H](C)CC)[C@@H](C)CC)C(C)C)C(C)C [SEQ ID NO: 151, IVLSLDvPIGLK*QILLKQERQKKAibREQAEKNKRILERV-NH2] (H-IVLSLD[dV]PIGLK([AEEA-AEEA-γGlu-C18 diacid])QILLKQERQKK[Aib]REQAEKNKRILERV-NH2)
  Duration (h): last time point for which a significant effect on BP was still seen: 28 h
  Effect on Systolic Pressure % change from baseline 8 h: −12.3%
  Effect on Systolic Pressure % change from baseline 24 h: −3.8%
